Data reported in PubChem BioAssay AID569 (University of Pittsburgh Molecular Library Screening Center, 2006).
The source made the active and inactive calls. How the calls were made is not given here.

molecular target: M-phase inducer phosphatase 2 (Homo sapiens) (UniProt P30305); experiment: Cdc25B phosphatase inhibitor potency retest, dose response, biochemical, catalytic domain, fluorescence, IC50 (AID 569); conditions: recombinant Cdc25B phosphatase, fluorescence substrate
Sequence (P30305 whole entry, looked up, the tested form may be a part): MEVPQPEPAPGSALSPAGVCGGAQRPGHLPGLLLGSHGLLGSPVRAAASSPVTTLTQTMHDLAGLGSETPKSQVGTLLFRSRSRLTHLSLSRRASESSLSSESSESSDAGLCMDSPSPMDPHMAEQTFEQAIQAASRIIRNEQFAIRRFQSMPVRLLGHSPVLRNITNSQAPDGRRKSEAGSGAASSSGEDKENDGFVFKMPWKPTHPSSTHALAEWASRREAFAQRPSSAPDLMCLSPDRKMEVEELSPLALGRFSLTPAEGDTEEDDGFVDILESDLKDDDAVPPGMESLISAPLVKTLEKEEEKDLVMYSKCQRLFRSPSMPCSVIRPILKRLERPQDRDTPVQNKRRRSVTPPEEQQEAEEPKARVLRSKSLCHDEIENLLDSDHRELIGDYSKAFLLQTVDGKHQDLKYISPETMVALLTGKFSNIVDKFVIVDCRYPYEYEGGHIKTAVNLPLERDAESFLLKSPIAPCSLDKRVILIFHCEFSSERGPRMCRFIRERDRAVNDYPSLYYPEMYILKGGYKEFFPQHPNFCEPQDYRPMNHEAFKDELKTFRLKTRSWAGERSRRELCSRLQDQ

SMILES | IC50
O=C1CC(N2CCN(CCc3ccccn3)CC2)C(=O)N1c1ccc(Cl)cc1 (stereo unspecified) | > 50 µM (inactive)
Cc1nc2c(C)cccn2c1/C(O)=C1\C(=O)C(=O)N(CCN(C)C)C1c1ccncc1 (stereo unspecified) | > 50 µM (inactive)
CCOc1cc(C2C(C#N)=C(N)Oc3n[nH]c(-c4ccccc4)c32)ccc1O (stereo unspecified) | > 50 µM (inactive)
Oc1ccc2ccccc2c1C=NC12CN3CCN(CN(C3)C1)C2 | 9.53 µM
N#CC1=C(N)N2C(=C(C#N)C13CCCCC3)SC1CCCCC12O (stereo unspecified) | > 50 µM (inactive)
COc1cccc(N2CCN(C3CC(=O)N(c4cccc(Cl)c4)C3=O)CC2)c1 (stereo unspecified) | > 50 µM (inactive)
